From article PMC3119665, “A New Drug Design Targeting the Adenosinergic System for Huntington's Disease” (PLoS ONE, 2011)

Tests used:
Vasopressin V1A = biological target: T1, Vasopressin V1A (Homo sapiens, UniProt P37288); assay: Radioligand binding panel (Table S1); conditions: 10 μM T1-11, n 2
T1 construct: purchased MDS Pharma Services Taiwan

Vitamin D3 = biological target: T2, Vitamin D3 (Homo sapiens, UniProt P11473); assay: Radioligand binding panel (Table S1); conditions: 10 μM T1-11, n 2
T2 construct: purchased MDS Pharma Services Taiwan

Progesterone = assay: Radioligand binding panel (Table S1); design: species or system bovine; conditions: 10 μM T1-11, n 2
Rolipram = assay: Radioligand binding panel (Table S1); design: species or system rat; conditions: 10 μM T1-11, n 2
Glutamate, NMDA, Agonism = assay: Radioligand binding panel (Table S1); design: species or system rat; conditions: 10 μM T1-11, n 2
[1] = biological target: T3, adenosine transporter (ENT1) (Rattus norvegicus, UniProt O54698); assay: Adenosine uptake by PC12 cells; type: cell-based
T3 construct: endogenous in cells; host or cells: PC12
T3 sequence (O54698 whole entry): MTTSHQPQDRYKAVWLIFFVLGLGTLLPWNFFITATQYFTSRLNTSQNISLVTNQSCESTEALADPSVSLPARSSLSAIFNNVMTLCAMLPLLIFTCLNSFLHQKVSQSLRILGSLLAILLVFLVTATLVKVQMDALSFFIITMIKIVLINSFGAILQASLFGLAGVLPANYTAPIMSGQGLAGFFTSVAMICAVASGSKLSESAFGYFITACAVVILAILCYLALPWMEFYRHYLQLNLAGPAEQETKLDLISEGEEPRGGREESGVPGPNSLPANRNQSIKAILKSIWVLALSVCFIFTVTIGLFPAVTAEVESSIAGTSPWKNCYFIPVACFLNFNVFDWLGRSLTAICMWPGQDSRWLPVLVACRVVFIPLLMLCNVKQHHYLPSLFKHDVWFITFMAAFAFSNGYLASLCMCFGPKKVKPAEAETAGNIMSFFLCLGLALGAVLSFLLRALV
Experimental: For adenosine uptake of PC12, cells were seeded approximately 16 h before each uptake assay at ∼2×10^5 cells per well in 24-well plates coated with poly-L-lysine. To perform adenosine uptake assays, cells were washed with Krebs Ringer-Henseleit buffer [125 mM NaCl, 4.8 mM KCl, 1.3 mM CaCl2, 1.2 mM MgSO4, 1.2 mM KH2PO4, 5.6 mM glucose, 10 µM pargyline, and 10 mM HEPES (pH 7.2)] and incubated in the same buffer for 10 min at 37°C in the presence or absence of the indicated reagent(s). Adenosine uptake was initiated by adding [^3H]adenosine at the indicated concentration (0.5 µCi/mmol) at 37°C. At the end of the incubation, cells were placed on ice, washed twice with ice-cold Krebs Ringer-Henseleit buffer to remove free [^3H]adenosine, lysed with 1% Triton X-100, and added to scintillation vials to count the radioactivity. Non-specific uptake was determined as the uptake performed in the presence of 100 µM adenosine, and was subtracted from the total adenosine uptake.

[2] = biological target: T4, Phosphodiesterase PDE10A1 (Homo sapiens, UniProt Q9Y233); assay: Radioligand binding panel (Table S1); conditions: 10 μM T1-11, n 2
T4 construct: purchased MDS Pharma Services Taiwan

[3] = biological target: T5, Nicotinic Acetylcholine α7, Bungarotoxin (Rattus norvegicus, UniProt Q05941); assay: Radioligand binding panel (Table S1)
T5 construct: purchased MDS Pharma Services Taiwan
T5 sequence (Q05941 23-502): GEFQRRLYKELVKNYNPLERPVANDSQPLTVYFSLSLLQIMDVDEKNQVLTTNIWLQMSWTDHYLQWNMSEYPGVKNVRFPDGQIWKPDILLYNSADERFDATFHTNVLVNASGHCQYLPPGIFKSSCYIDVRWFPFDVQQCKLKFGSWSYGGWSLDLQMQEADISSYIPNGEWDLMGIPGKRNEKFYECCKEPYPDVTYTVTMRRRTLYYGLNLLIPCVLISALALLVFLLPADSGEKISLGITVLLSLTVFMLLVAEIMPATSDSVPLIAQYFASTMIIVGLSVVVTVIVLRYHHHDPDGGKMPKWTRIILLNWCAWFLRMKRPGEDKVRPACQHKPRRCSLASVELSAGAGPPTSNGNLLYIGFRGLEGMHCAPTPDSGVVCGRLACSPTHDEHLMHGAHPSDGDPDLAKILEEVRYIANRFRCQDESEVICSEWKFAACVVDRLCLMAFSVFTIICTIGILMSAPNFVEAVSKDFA

Melanocortin MC3 = biological target: T6, Melanocortin MC3 (Homo sapiens, UniProt P41968); assay: Radioligand binding panel (Table S1); conditions: 10 μM T1-11, n 2
T6 construct: purchased MDS Pharma Services Taiwan

Cannabinoid CB1 = biological target: T7, Cannabinoid CB1 (Homo sapiens, UniProt P21554); assay: Radioligand binding panel (Table S1); conditions: 10 μM T1-11, n 2
T7 construct: purchased MDS Pharma Services Taiwan
T7 sequence (P21554 whole entry): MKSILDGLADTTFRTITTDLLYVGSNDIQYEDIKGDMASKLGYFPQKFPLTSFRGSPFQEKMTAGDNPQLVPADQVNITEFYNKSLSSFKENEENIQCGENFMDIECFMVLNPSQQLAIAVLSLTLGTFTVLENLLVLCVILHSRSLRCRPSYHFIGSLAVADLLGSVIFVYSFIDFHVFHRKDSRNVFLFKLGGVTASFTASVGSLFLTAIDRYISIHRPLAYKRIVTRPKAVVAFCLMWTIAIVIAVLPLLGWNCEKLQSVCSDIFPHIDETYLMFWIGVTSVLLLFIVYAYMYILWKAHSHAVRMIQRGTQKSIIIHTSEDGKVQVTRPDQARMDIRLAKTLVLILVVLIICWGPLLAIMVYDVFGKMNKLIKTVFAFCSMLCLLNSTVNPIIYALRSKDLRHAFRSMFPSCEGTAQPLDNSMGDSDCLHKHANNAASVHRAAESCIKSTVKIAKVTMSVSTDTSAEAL

[4] = system: Calcium Channel L-Type, Benzothiazepine; assay: Radioligand binding panel (Table S1); design: species or system rat; conditions: 10 μM T1-11, n 2
Bradykinin B1 = biological target: T8, Bradykinin B1 (Homo sapiens, UniProt P46663); assay: Radioligand binding panel (Table S1); conditions: 10 μM T1-11, n 2
T8 construct: purchased MDS Pharma Services Taiwan
T8 sequence (P46663 whole entry): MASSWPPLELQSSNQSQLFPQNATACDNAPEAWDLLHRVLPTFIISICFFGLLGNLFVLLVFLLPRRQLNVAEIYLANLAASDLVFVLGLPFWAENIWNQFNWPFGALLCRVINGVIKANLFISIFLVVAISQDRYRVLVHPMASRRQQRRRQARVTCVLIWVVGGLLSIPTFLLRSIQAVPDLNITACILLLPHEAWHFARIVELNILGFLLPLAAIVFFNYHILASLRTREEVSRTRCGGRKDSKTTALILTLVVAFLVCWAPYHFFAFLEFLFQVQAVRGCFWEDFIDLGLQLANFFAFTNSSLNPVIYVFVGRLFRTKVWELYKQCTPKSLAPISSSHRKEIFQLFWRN

Transporter, Dopamine = biological target: T9, Transporter, Dopamine (Homo sapiens, UniProt Q01959); assay: Radioligand binding panel (Table S1); conditions: 10 μM T1-11, n 2
T9 construct: purchased MDS Pharma Services Taiwan
T9 sequence (Q01959 whole entry): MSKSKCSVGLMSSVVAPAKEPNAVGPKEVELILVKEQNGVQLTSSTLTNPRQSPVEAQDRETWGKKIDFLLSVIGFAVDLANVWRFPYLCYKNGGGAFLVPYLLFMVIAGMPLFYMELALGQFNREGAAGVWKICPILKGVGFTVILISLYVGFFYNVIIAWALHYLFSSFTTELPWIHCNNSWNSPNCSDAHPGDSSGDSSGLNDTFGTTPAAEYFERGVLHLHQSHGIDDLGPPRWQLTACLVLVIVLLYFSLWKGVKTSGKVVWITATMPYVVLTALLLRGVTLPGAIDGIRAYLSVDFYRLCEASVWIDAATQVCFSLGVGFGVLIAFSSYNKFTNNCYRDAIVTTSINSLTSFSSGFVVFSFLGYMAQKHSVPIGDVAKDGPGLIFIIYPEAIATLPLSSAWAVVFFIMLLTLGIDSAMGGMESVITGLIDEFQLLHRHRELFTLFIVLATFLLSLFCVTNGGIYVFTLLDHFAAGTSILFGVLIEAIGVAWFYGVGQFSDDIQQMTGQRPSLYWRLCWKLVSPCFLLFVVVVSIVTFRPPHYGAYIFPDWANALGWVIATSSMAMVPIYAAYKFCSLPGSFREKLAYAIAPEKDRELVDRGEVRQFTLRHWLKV

R6/2 mice = assay: In vivo 3D MRI imaging of brain atrophy in R6/2 mice; conditions: 0.05 mg/ml in drinking water, five weeks
Experimental: Supplementary file pone.0020934.s005.tif: Figure S5 Effect of T1-11 on the shorten lifespan and enlarged ventricle of R6/2 mice. Animals were given the vehicle (1% DMSO; CON) or T1-11 (0.05 mg/ml)-containing drinking water from the age of 7 weeks. (A) Survival was assessed. Specific comparison to R6/2 mice treated with the vehicle (p = 0.306; Mantel-Cox test). (B) Five weeks after T1-11 treatment, 3D-lMRI was performed to determine the ventricle-to-brain ratio of the indicated animals as described. * p<0.05. (TIF) Click here for additional data file.

Phosphodiesterase PDE1 = assay: Radioligand binding panel (Table S1); design: species or system bovine; conditions: 10 μM T1-11, n 2
[5] = biological target: T10, Vasoactive Intestinal Peptide VIP1 (Homo sapiens, UniProt P32241); assay: Radioligand binding panel (Table S1); conditions: 10 μM T1-11, n 2
T10 construct: purchased MDS Pharma Services Taiwan
T10 sequence (P32241 31-457): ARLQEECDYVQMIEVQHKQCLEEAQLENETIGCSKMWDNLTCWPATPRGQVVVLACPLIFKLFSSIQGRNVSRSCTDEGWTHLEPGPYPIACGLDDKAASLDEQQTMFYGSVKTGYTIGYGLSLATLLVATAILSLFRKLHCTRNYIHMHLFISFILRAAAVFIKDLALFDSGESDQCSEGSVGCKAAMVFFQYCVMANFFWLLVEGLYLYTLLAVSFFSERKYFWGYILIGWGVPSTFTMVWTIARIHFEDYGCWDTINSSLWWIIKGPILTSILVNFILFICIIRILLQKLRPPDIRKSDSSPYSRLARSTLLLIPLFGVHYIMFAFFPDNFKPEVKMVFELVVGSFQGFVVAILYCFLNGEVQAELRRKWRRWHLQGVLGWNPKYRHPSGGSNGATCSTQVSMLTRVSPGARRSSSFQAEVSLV

[6] = system: Muscarinic, Non-Selective, Central; assay: Radioligand binding panel (Table S1); design: species or system rat; conditions: 10 μM T1-11, n 2
[7] = system: Vascular Endothelial Growth Factor (VEGF); assay: Radioligand binding panel (Table S1); design: species or system human; conditions: 10 μM T1-11, n 2
[8] = system: Transforming Growth Factor-β (TGF-β); assay: Radioligand binding panel (Table S1); design: species or system mouse; conditions: 10 μM T1-11, n 2
Orexin OX 2 = biological target: T11, Orexin OX 2 (Homo sapiens, UniProt O43614); assay: Radioligand binding panel (Table S1); conditions: 10 μM T1-11, n 2
T11 construct: purchased MDS Pharma Services Taiwan

[9] = biological target: T12, Epidermal Growth Factor (EGF) (Homo sapiens, UniProt P00533); assay: Radioligand binding panel (Table S1); conditions: 10 μM T1-11, n 2
T12 construct: purchased MDS Pharma Services Taiwan

A2A adenosine receptor = biological target: T13, A2A adenosine receptor (Homo sapiens, UniProt P29274); assay: Radioligand binding assay
T13 construct: host or cells: HEK293
T13 sequence (P29274 whole entry): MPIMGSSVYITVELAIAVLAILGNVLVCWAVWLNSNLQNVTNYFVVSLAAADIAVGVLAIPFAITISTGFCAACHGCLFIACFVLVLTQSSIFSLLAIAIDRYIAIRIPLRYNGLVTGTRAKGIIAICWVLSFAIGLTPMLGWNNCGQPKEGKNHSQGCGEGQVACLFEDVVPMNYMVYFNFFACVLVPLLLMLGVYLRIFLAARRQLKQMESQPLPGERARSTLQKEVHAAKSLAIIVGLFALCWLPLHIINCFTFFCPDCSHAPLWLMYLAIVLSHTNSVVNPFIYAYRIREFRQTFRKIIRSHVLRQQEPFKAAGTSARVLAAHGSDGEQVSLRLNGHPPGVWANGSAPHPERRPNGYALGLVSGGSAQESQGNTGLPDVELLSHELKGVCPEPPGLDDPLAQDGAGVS

Bombesin BB2 = biological target: T14, Bombesin BB2 (Homo sapiens, UniProt P30550); assay: Radioligand binding panel (Table S1); conditions: 10 μM T1-11, n 2
T14 construct: purchased MDS Pharma Services Taiwan
T14 sequence (P30550 whole entry): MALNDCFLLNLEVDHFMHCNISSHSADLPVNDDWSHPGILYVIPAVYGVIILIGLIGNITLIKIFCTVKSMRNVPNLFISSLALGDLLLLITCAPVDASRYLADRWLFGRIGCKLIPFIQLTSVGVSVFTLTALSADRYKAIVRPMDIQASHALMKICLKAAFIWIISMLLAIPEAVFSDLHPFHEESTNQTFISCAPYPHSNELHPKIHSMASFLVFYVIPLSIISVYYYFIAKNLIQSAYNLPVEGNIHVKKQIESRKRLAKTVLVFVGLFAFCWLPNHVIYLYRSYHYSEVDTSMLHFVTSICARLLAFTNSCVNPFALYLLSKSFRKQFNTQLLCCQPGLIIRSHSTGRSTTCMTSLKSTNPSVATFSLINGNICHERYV

[10] = biological target: T15, Platelet Activating Factor (PAF) (Homo sapiens, UniProt P25105); assay: Radioligand binding panel (Table S1); conditions: 10 μM T1-11, n 2
T15 construct: purchased MDS Pharma Services Taiwan
T15 sequence (P25105 whole entry): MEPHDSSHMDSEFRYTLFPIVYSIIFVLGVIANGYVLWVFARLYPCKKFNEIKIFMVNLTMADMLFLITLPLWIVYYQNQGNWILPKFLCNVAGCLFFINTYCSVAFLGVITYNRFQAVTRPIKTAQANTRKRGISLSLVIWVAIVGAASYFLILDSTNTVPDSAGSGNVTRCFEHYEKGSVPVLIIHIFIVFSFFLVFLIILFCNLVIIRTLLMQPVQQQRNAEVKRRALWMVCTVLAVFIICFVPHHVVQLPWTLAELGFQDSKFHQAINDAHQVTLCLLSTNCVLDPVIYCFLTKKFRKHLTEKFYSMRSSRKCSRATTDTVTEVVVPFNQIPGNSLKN

Neuromedin U NMU1 = biological target: T16, Neuromedin U NMU1 (Homo sapiens, UniProt Q9HB89); assay: Radioligand binding panel (Table S1); conditions: 10 μM T1-11, n 2
T16 construct: purchased MDS Pharma Services Taiwan

[11] = system: Tumor Necrosis Factor (TNF), Non-Selective; assay: Radioligand binding panel (Table S1); design: species or system human; conditions: 10 μM T1-11, n 2
Sodium Channel, Site 2 = assay: Radioligand binding panel (Table S1); design: species or system rat; conditions: 10 μM T1-11, n 2
Lipoxygenase 12-LO = biological target: T17, Lipoxygenase 12-LO (Homo sapiens, UniProt P18054); assay: Radioligand binding panel (Table S1); conditions: 10 μM T1-11, n 2
T17 construct: purchased MDS Pharma Services Taiwan

Adrenergic α 2B = biological target: T18, Adrenergic α 2B (Homo sapiens, UniProt P18089); assay: Radioligand binding panel (Table S1); conditions: 10 μM T1-11, n 2
T18 construct: purchased MDS Pharma Services Taiwan

Prostanoid EP4 = biological target: T19, Prostanoid EP4 (Homo sapiens, UniProt P35408); assay: Radioligand binding panel (Table S1); conditions: 10 μM T1-11, n 2
T19 construct: purchased MDS Pharma Services Taiwan
T19 sequence (P35408 whole entry): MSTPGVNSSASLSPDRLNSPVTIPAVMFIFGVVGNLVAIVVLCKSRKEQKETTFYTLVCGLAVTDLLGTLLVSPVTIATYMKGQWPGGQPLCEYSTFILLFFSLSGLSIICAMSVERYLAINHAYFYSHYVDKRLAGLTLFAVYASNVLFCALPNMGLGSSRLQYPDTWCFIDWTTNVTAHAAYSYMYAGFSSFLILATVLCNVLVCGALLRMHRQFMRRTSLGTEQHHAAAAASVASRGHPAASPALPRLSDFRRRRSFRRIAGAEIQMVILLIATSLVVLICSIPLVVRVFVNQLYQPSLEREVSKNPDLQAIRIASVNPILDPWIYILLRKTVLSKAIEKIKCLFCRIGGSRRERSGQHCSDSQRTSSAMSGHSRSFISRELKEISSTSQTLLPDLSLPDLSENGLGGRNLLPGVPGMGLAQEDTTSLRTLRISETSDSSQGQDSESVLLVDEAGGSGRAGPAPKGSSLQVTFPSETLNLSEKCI

[12] = HEK293 membranes, 3H-CGS21680 50 nM

T1 sequence (P37288 whole entry): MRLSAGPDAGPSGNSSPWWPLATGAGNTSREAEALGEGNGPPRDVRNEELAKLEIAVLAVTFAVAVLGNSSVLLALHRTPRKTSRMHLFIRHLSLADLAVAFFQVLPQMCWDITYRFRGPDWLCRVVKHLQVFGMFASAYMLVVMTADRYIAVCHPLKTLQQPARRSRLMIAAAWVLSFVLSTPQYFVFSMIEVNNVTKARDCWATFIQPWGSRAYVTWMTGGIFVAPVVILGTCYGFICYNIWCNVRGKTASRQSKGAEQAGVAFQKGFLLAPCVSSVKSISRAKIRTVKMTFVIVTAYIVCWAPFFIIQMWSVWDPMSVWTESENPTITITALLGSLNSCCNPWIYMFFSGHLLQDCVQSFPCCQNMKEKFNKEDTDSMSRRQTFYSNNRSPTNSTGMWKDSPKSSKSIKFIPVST

OC[C@H]1O[C@@H](n2cnc3c(NCc4ccc(O)cc4)ncnc32)[C@H](O)[C@@H]1O [T1-11, N ^6-(4-hydroxybenzyl)adenine riboside]
inhibition at 10 µM (Vasopressin V1A): 0% | inhibition at 10 µM (Vitamin D3): 6% | % Inhibition (Progesterone): 9% | % Inhibition (Rolipram): -6% | % Inhibition (Glutamate, NMDA, Agonism): 10% | Function ([1]; Adenosine transporter (ENT1), suppressed the uptake of adenosine): inhibitor | Inhibition of adenosine uptake ([1]; PC12 cells): inhibited adenosine uptake by PC12 cells in a dose-dependent manner | inhibition at 10 µM [2]: 1% | inhibition at 10 µM [3]: -1% | inhibition at 10 µM (Melanocortin MC3): 3% | inhibition at 10 µM (Cannabinoid CB1): -7% | % Inhibition [4]: -8% | inhibition at 10 µM (Bradykinin B1): -8% | inhibition at 10 µM (Transporter, Dopamine): -6% | Brain atrophy (3D MRI) (R6/2 mice): slightly ameliorated the brain atrophy of R6/2 mice but the improvement did not reach statistic significance | % Inhibition (Phosphodiesterase PDE1): 26% | inhibition at 10 µM [5]: 2% | % Inhibition [6]: 12% | % Inhibition [7]: 16% | % Inhibition [8]: -1% | inhibition at 10 µM (Orexin OX 2): -7% | inhibition at 10 µM [9]: -5% | inhibition at 10 µM (A2A adenosine receptor; 10 μM T1-11, n 2): 58% | IC50 (A2A adenosine receptor; [12]): 4.66 µM | Ki (A2A adenosine receptor; [12]): 2.62 µM | inhibition at 10 µM (Bombesin BB2): 3% | inhibition at 10 µM [10]: 7% | inhibition at 10 µM (Neuromedin U NMU1): -1% | % Inhibition [11]: -2% | % Inhibition (Sodium Channel, Site 2): 3% | inhibition at 10 µM (Lipoxygenase 12-LO): 9% | inhibition at 10 µM (Adrenergic α 2B): 2% | inhibition at 10 µM (Prostanoid EP4): -6%
